Patent publication US20230059873A1, “EXPANSION OF STEM CELLS IN SUSPENSION IN A BIOREACTOR” (REPAIRON GMBH, priority 2019, published 2023)

Experiments:
Format in all cases: cell-based, human
iPSCs (TC1133) [1] = test: Long-term suspension culture of iPSCs in ambr15 bioreactor with automated passaging, ROCKi vs TZV (Example 1): aggregate size and expansion; conditions: for aggregate size: end of all passages except passage 0, ROCK inhibitor used during passaging
Protocol: (§1) • 13 ml with 2.5×10^5 cells/ml per vessel in passage 0; 5×10^5 cells/ml per vessel at all other passages. • Medium Change: 62% Exchange per day • Cells: TC1133, NINDS • Culture conditions: 37° C., pH 7.4, dO 23.8%, 300 rpm downstirr.
(§2) • 1. Y27632 treatment of iPSC aggregates at a final concentration of 10 μM two hours before dissociation. • 2. Two times washing with Versene: Stop of stirring for two minutes, removal of medium to 2 mL without disturbing sedimented aggregates, addition of Versene to 10 mL, starting the stirring (300 rpm, downwards) for 10 seconds. • 3. Removal of medium to 2 mL in the same way as described in the washing steps and addition of Versene to 5 mL. • 4. Stirring at 600 rpm for up to 15 min until dissociation is sufficient. […] Reduce stirring to 300 rpm. • 6. Cell count. • 7. Transfer a volume of cell suspension into a fresh ambr15 vessel resulting in a seeding concentration of 2-5×10^5 cells/mL, thereby diluting the cell dissociation reagent by addition of an excess volume (at least 5-fold) of iPS-Brew
(§3) • ambr15 cell culture 24 Disposable bioreactors, Low temp, no sparge, Part number: 001-2B81 • StemMACS iPS-Brew XF, Basal Medium, Order no.: 130-107-086 • StemMACS™ iPS-Brew XF 50× Supplement; Order no.: 130-107-087 • ROCKi Y27632; Stemolecule • Versene Solution, Cat No.: 15040-033 • Ambr15 bioreactor, Sartorius Stedim • Nucleocounter NC-200 Type 900-0201 • Cellavista Cell Imager • Flow Cytometer: BD LSR II Special Order System

[2] = tested on: iPSCs (TC1133); OCT4, TRA-1-60; test: Expression of pluripotency-related genes at end of passages in long-term suspension culture (Example 1)
Protocol: as §1
as §2, with “iPS-Brew […]” for “iPS-Brew”

iPSCs (TC1133) [3] = test: Effect of ROCKi pretreatment (4 h) on passaging of iPSCs in suspension (Example 4): aggregate size and expansion rate
Protocol: as §1
as §2, with “Y27632 treatment of iPSC aggregates at a final concentration of 10 μM two hours before dissociation. • 2.” left out
as §3
The aim of this example was to analyze the effects of ROCKi pretreatment on passaging of iPSCs in suspension.

[4] = tested on: iPSCs (TC1133); OCT4, NANOG, TRA-1-60; test: Effect of ROCKi pretreatment (4 h) on expression of pluripotency-related markers in iPSCs (Example 4)
Protocol: as §1
• 1. Y27632 treatment of iPSC aggregates at a final concentration of 10 μM two hours before dissociation. • 2. Two times washing with Versene: Stop of stirring for two minutes, removal of medium to 2 mL without disturbing sedimented aggregates, addition of Versene to 10 mL, starting the stirring (300 rpm, downwards) for 10 seconds. • 3. Removal of medium to 2 mL in the same way as described in the washing steps and addition of Versene to 5 mL. • 4. Stirring at 600 rpm for up to 15 min until dissociation is sufficient. In progress controls have to be observed microscopically to assess the right degree of dissociation. • 5. Reduce stirring to 300 rpm. • 6. Cell count. • 7. Transfer a volume of cell suspension into a fresh ambr15 vessel resulting in a seeding concentration of 2-5×10^5 cells/mL, thereby diluting the cell dissociation reagent by addition of an excess volume (at least 5-fold) of iPS-Brew
as §3
The aim of this example was to analyze the effects of ROCKi pretreatment on passaging of iPSCs in suspension. Example 4 was performed like Examples 1-3 except that the ROCKi pretreatment was performed for 4 h.

[5] = day 3 after passaging, with ROCKi pretreatment
[6] = day 4 of passage 0 (day of passaging, cells to be pretreated)
[7] = day 3 after passaging, ROCKi pretreated
[8] = day 5 after passaging, ROCKi pretreated

| SMILES | aggregate size (iPSCs (TC1133) [1]) | expansion rates of iPSCs relative to ROCKi treated cells (iPSCs (TC1133) [1]; iPSCs passaged with TZV compared with ROCKi) | expression of pluripotency-related genes ([2]; end of passage 0, 2 and 3) | accumulated fold increase (iPSCs (TC1133) [1]; after 43 days, 8 passages, calculated from starting cell numbers and splitting ratios) | aggregate size (iPSCs (TC1133) [3]; [5]) [μm] | expansion rate (iPSCs (TC1133) [3]; [5]) [fold increase] | aggregate size (iPSCs (TC1133) [3]; [6]) [μm] | expansion rate (iPSCs (TC1133) [3]; [6]) [fold increase] | expansion rate (iPSCs (TC1133) [3]; day 5 after passaging, with ROCKi pretreatment) [fold increase] | expression of pluripotency-related genes (OCT4, TRA-1-60) ([2]; end of every analyzed passage) | NANOG expression [4, 7] [%] | OCT4 expression [4, 7] [%] | TRA-1-60 expression [4, 7] [%] | NANOG expression [4, 6] [%] | OCT4 expression [4, 6] [%] | TRA-1-60 expression [4, 6] [%] | NANOG expression [4, 8] [%] | OCT4 expression [4, 8] [%] | TRA-1-60 expression [4, 8] [%] |
| --- | --- | --- | --- | --- | --- | --- | --- | --- | --- | --- | --- | --- | --- | --- | --- | --- | --- | --- | --- |
| O=C(NCc1ccccc1)c1csc(Nc2ccncn2)n1 [TZV, thiazovivin] | about 200 μm | comparable | high |  |  |  |  |  |  |  |  |  |  |  |  |  |  |  |  |
| C[C@@H](N)[C@H]1CC[C@H](C(=O)Nc2ccncc2)CC1 [ROCKi, Y27632] | about 200 μm |  |  | 9.6×10^6 | 162.06±53 | 3.14 | 197.41±75 | 12.34 | 9.2 | high | 93.6 | 95.9 | 99.1 | 96.9 | 97.8 | 99.3 | 81.8 | 94.4 | 98.7 |
